Reference: patent US6670446B1, “N1 modified glycopeptides” (Eli Lilly and Company, priority 1998, dated 2003)

Experiments:
Type in all cases: cell-based
[1] = system: Resistant Enterococcus faecium and faecalis; assay: MIC, standard broth micro-dilution assay, Resistant; conditions: geometric mean of 4-6 isolates
Experimental: (§1) The antibacterial efficacy of the present compounds is illustrated by Table III. The minimal inhibitory concentrations (MICs) were determined using a standard broth micro-dilution assay.

[2] = system: Sensitive Enterococcus faecium and faecalis; assay: MIC, standard broth micro-dilution assay, Sensitive; conditions: geometric mean of 4-6 isolates
Experimental: as §1

[3] = system: Staphylococcus aureus 446; assay: MIC, standard broth micro-dilution assay, SA 446
Experimental: as §1

[4] = system: Staphylococcus aureus 489; assay: MIC, standard broth micro-dilution assay, SA 489
Experimental: as §1

[5] = system: Staphylococcus aureus 447; assay: MIC, standard broth micro-dilution assay, SA 447
Experimental: as §1

[6] = system: Staphylococcus aureus X400; assay: MIC, standard broth micro-dilution assay, SA X400
Experimental: as §1

[7] = system: Staphylococcus aureus X778; assay: MIC, standard broth micro-dilution assay, SA X778
Experimental: as §1

[8] = system: Staphylococcus aureus 491; assay: MIC, standard broth micro-dilution assay, SA 491
Experimental: as §1

[9] = system: Staphylococcus aureus S13E
Experimental: as §1

[10] = system: Staphylococcus aureus SA1199; assay: MIC, standard broth micro-dilution assay, SA 1199
Experimental: as §1

[11] = system: Staphylococcus aureus SA1199A; assay: MIC, standard broth micro-dilution assay, SA 1199A
Experimental: as §1

[12] = system: Staphylococcus haemolyticus 105; assay: MIC, standard broth micro-dilution assay, SH 105
Experimental: as §1

[13] = system: Staphylococcus haemolyticus 415; assay: MIC, standard broth micro-dilution assay, SH 415
Experimental: as §1

[14] = system: Staphylococcus epidermidis 270; assay: MIC, standard broth micro-dilution assay, SE 270
Experimental: as §1

Enterococcus faecium 180 = assay: MIC, standard broth micro-dilution assay, EF 180
Experimental: as §1

[15] = system: Enterococcus faecium 180-1; assay: MIC, standard broth micro-dilution assay, EF 180-1
Experimental: as §1

[16] = system: Enterococcus faecalis 2041; assay: MIC, standard broth micro-dilution assay, EF 2041
Experimental: as §1

[17] = system: Enterococcus faecalis 276; assay: MIC, standard broth micro-dilution assay, EF 276
Experimental: as §1

[18] = system: Enterococcus gallinarum 245; assay: MIC, standard broth micro-dilution assay, EG 245
Experimental: as §1

[19] = system: Haemophilus influenzae RD; assay: MIC, standard broth micro-dilution assay, HFRD
Experimental: as §1

Escherichia coli EC14 = assay: MIC, standard broth micro-dilution assay, EC 14
Experimental: as §1

CC(C)CCC(=O)NC1C(=O)NC(CC(N)=O)C(=O)NC2C(=O)NC3C(=O)NC(C(=O)NC(C(=O)O)c4cc(O)cc(O)c4-c4cc3ccc4O)C(OC3CC(C)(N)C(O)C(C)O3)c3ccc(c(Cl)c3)Oc3cc2cc(c3OC2OC(CO)C(O)C(O)C2OC2CC(C)(NCc3ccc(-c4ccc(Cl)cc4)cc3)C(O)C(C)O2)Oc2ccc(cc2Cl)C1O (stereo not drawn) [Example 7, N^1-(4-methyl-n-pentanoyl)-N^DISACC-[p-(p-chlorophenyl)benzyl]desleucylA82846B]
minimal inhibitory concentration (MIC), Resistant [1]: 3.4 | minimal inhibitory concentration (MIC), Sensitive [2]: 0.22 | minimal inhibitory concentration (MIC), SA 446 [3]: 0.5 | minimal inhibitory concentration (MIC), SA 489 [4]: 1 | minimal inhibitory concentration (MIC), SA 447 [5]: 0.5 | minimal inhibitory concentration (MIC), SA X400 [6]: 0.5 | minimal inhibitory concentration (MIC), SA X778 [7]: 1 | minimal inhibitory concentration (MIC), SA 491 [8]: 0.125 | minimal inhibitory concentration (MIC), SA S13E [9]: 0.5 | minimal inhibitory concentration (MIC), SA 1199 [10]: 1 | minimal inhibitory concentration (MIC), SA 1199A [11]: ≦.06 | minimal inhibitory concentration (MIC), SH 105 [12]: ≦.06 | minimal inhibitory concentration (MIC), SH 415 [13]: 1 | minimal inhibitory concentration (MIC), SE 270 [14]: ≦.06 | minimal inhibitory concentration (MIC), EF 180 (Enterococcus faecium 180): 1 | minimal inhibitory concentration (MIC), EF 180-1 [15]: ≦.06 | minimal inhibitory concentration (MIC), EF 2041 [16]: ≦.06 | minimal inhibitory concentration (MIC), EF 276 [17]: ≦.06 | minimal inhibitory concentration (MIC), EG 245 [18]: ≦.06 | minimal inhibitory concentration (MIC), HFRD [19]: 64 | minimal inhibitory concentration (MIC), EC 14 (Escherichia coli EC14): >64

CC1OC(OC2c3ccc(c(Cl)c3)Oc3cc4cc(c3OC3OC(CO)C(O)C(O)C3OC3CC(C)(NCc5ccc(-c6ccc(Cl)cc6)cc5)C(O)C(C)O3)Oc3ccc(cc3Cl)C(O)C(NC(=O)CCCCCCCc3ccccc3)C(=O)NC(CC(N)=O)C(=O)NC4C(=O)NC3C(=O)NC2C(=O)NC(C(=O)O)c2cc(O)cc(O)c2-c2cc3ccc2O)CC(C)(N)C1O (stereo not drawn) [Example 8, N^1-(8-phenyl-n-octanoyl)-N^DISACC-[p-(p-chlorophenyl)benzyl]desleucylA82846B]
minimal inhibitory concentration (MIC), Resistant [1]: 4 | minimal inhibitory concentration (MIC), Sensitive [2]: 2 | minimal inhibitory concentration (MIC), SA 446 [3]: 16 | minimal inhibitory concentration (MIC), SA 489 [4]: 8 | minimal inhibitory concentration (MIC), SA 447 [5]: 8 | minimal inhibitory concentration (MIC), SA X400 [6]: 8 | minimal inhibitory concentration (MIC), SA X778 [7]: 4 | minimal inhibitory concentration (MIC), SA 491 [8]: 4 | minimal inhibitory concentration (MIC), SA S13E [9]: 8 | minimal inhibitory concentration (MIC), SA 1199 [10]: 4 | minimal inhibitory concentration (MIC), SA 1199A [11]: 2 | minimal inhibitory concentration (MIC), SH 105 [12]: 2 | minimal inhibitory concentration (MIC), SH 415 [13]: 8 | minimal inhibitory concentration (MIC), SE 270 [14]: 8 | minimal inhibitory concentration (MIC), EF 180 (Enterococcus faecium 180): 2 | minimal inhibitory concentration (MIC), EF 180-1 [15]: 1 | minimal inhibitory concentration (MIC), EF 2041 [16]: 2 | minimal inhibitory concentration (MIC), EF 276 [17]: 1 | minimal inhibitory concentration (MIC), EG 245 [18]: 2 | minimal inhibitory concentration (MIC), HFRD [19]: >64 | minimal inhibitory concentration (MIC), EC 14 (Escherichia coli EC14): >64

CC1OC(OC2c3ccc(c(Cl)c3)Oc3cc4cc(c3OC3OC(CO)C(O)C(O)C3OC3CC(C)(NCc5ccc(-c6ccc(Cl)cc6)cc5)C(O)C(C)O3)Oc3ccc(cc3Cl)C(O)C(NC(=O)CCCCCCNC(=O)OC(C)(C)C)C(=O)NC(CC(N)=O)C(=O)NC4C(=O)NC3C(=O)NC2C(=O)NC(C(=O)O)c2cc(O)cc(O)c2-c2cc3ccc2O)CC(C)(N)C1O (stereo not drawn) [Example 9, N^1- [7-(tert-butoxycarboxamido)-n-heptanoyl]-N^DISACC-[p-(p-chlorophenyl)benzyl]desleucylA82846B]
minimal inhibitory concentration (MIC), Resistant [1]: 4.8 | minimal inhibitory concentration (MIC), Sensitive [2]: 0.66 | minimal inhibitory concentration (MIC), SA 446 [3]: 2 | minimal inhibitory concentration (MIC), SA 489 [4]: 1 | minimal inhibitory concentration (MIC), SA 447 [5]: 2 | minimal inhibitory concentration (MIC), SA X400 [6]: 2 | minimal inhibitory concentration (MIC), SA X778 [7]: 1 | minimal inhibitory concentration (MIC), SA 491 [8]: 1 | minimal inhibitory concentration (MIC), SA S13E [9]: 1 | minimal inhibitory concentration (MIC), SA 1199 [10]: 1 | minimal inhibitory concentration (MIC), SA 1199A [11]: 0.25 | minimal inhibitory concentration (MIC), SH 105 [12]: 0.5 | minimal inhibitory concentration (MIC), SH 415 [13]: 1 | minimal inhibitory concentration (MIC), SE 270 [14]: 1 | minimal inhibitory concentration (MIC), EF 180 (Enterococcus faecium 180): 2 | minimal inhibitory concentration (MIC), EF 180-1 [15]: 0.5 | minimal inhibitory concentration (MIC), EF 2041 [16]: 0.5 | minimal inhibitory concentration (MIC), EF 276 [17]: 1 | minimal inhibitory concentration (MIC), EG 245 [18]: 1 | minimal inhibitory concentration (MIC), HFRD [19]: >64 | minimal inhibitory concentration (MIC), EC 14 (Escherichia coli EC14): >64

CC(C)CC(NC(=O)OC(C)(C)C)C(=O)NC1C(=O)NC(CC(N)=O)C(=O)NC2C(=O)NC3C(=O)NC(C(=O)NC(C(=O)O)c4cc(O)cc(O)c4-c4cc3ccc4O)C(OC3CC(C)(N)C(O)C(C)O3)c3ccc(c(Cl)c3)Oc3cc2cc(c3OC2OC(CO)C(O)C(O)C2OC2CC(C)(NCc3ccc(-c4ccccc4)cc3)C(O)C(C)O2)Oc2ccc(cc2Cl)C1O [Example 11, N^1-(N-BOC-L-leucine) derivative of N^DISACC-(p-phenylbenzyl)desleucylA82846B]
minimal inhibitory concentration (MIC), Resistant [1]: 45 | minimal inhibitory concentration (MIC), Sensitive [2]: 1.7 | minimal inhibitory concentration (MIC), SA 446 [3]: 1 | minimal inhibitory concentration (MIC), SA 489 [4]: 2 | minimal inhibitory concentration (MIC), SA 447 [5]: 1 | minimal inhibitory concentration (MIC), SA X400 [6]: 1 | minimal inhibitory concentration (MIC), SA X778 [7]: 0.5 | minimal inhibitory concentration (MIC), SA 491 [8]: 2 | minimal inhibitory concentration (MIC), SA S13E [9]: 1 | minimal inhibitory concentration (MIC), SA 1199 [10]: 1 | minimal inhibitory concentration (MIC), SA 1199A [11]: 1 | minimal inhibitory concentration (MIC), SH 105 [12]: 0.5 | minimal inhibitory concentration (MIC), SH 415 [13]: 1 | minimal inhibitory concentration (MIC), SE 270 [14]: 0.5 | minimal inhibitory concentration (MIC), EF 180 (Enterococcus faecium 180): 8 | minimal inhibitory concentration (MIC), EF 180-1 [15]: 0.25 | minimal inhibitory concentration (MIC), EF 2041 [16]: 1 | minimal inhibitory concentration (MIC), EF 276 [17]: 2 | minimal inhibitory concentration (MIC), EG 245 [18]: 1 | minimal inhibitory concentration (MIC), HFRD [19]: >64 | minimal inhibitory concentration (MIC), EC 14 (Escherichia coli EC14): >64

CC1OC(OC2c3ccc(c(Cl)c3)Oc3cc4cc(c3OC3OC(CO)C(O)C(O)C3OC3CC(C)(NCc5ccc(-c6ccccc6)cc5)C(O)C(C)O3)Oc3ccc(cc3Cl)C(O)C(NC(=O)C3CCCN3)C(=O)NC(CC(N)=O)C(=O)NC4C(=O)NC3C(=O)NC2C(=O)NC(C(=O)O)c2cc(O)cc(O)c2-c2cc3ccc2O)CC(C)(N)C1O [Example 12, N^1-D-proline derivative of N^DISACC-(p-phenylbenzyl)desleucylA82846B]
minimal inhibitory concentration (MIC), Resistant [1]: 2.8 | minimal inhibitory concentration (MIC), Sensitive [2]: 0.19 | minimal inhibitory concentration (MIC), SA 446 [3]: 2 | minimal inhibitory concentration (MIC), SA 489 [4]: 2 | minimal inhibitory concentration (MIC), SA 447 [5]: 0.5 | minimal inhibitory concentration (MIC), SA X400 [6]: 1 | minimal inhibitory concentration (MIC), SA X778 [7]: 0.25 | minimal inhibitory concentration (MIC), SA 491 [8]: 0.5 | minimal inhibitory concentration (MIC), SA S13E [9]: 2 | minimal inhibitory concentration (MIC), SA 1199 [10]: 1 | minimal inhibitory concentration (MIC), SA 1199A [11]: 0.25 | minimal inhibitory concentration (MIC), SH 105 [12]: 0.125 | minimal inhibitory concentration (MIC), SH 415 [13]: 0.25 | minimal inhibitory concentration (MIC), SE 270 [14]: 0.125 | minimal inhibitory concentration (MIC), EF 180 (Enterococcus faecium 180): 1 | minimal inhibitory concentration (MIC), EF 180-1 [15]: ≦.06 | minimal inhibitory concentration (MIC), EF 2041 [16]: 0.25 | minimal inhibitory concentration (MIC), EF 276 [17]: 1 | minimal inhibitory concentration (MIC), EG 245 [18]: 0.25 | minimal inhibitory concentration (MIC), HFRD [19]: 32 | minimal inhibitory concentration (MIC), EC 14 (Escherichia coli EC14): >64

CC(C)CC(N)C(=O)NC1C(=O)NC(CC(N)=O)C(=O)NC2C(=O)NC3C(=O)NC(C(=O)NC(C(=O)O)c4cc(O)cc(O)c4-c4cc3ccc4O)C(OC3CC(C)(N)C(O)C(C)O3)c3ccc(c(Cl)c3)Oc3cc2cc(c3OC2OC(CO)C(O)C(O)C2OC2CC(C)(NCc3ccc(-c4ccccc4)cc3)C(O)C(C)O2)Oc2ccc(cc2Cl)C1O [Example 13, N^1-D-leucine derivative of N^DISACC-(p-phenylbenzyl)desleucylA82846B]
minimal inhibitory concentration (MIC), Resistant [1]: 2.4 | minimal inhibitory concentration (MIC), Sensitive [2]: 0.095 | minimal inhibitory concentration (MIC), SA 446 [3]: 1 | minimal inhibitory concentration (MIC), SA 489 [4]: 0.5 | minimal inhibitory concentration (MIC), SA 447 [5]: 1 | minimal inhibitory concentration (MIC), SA X400 [6]: 0.5 | minimal inhibitory concentration (MIC), SA X778 [7]: 1 | minimal inhibitory concentration (MIC), SA 491 [8]: 1 | minimal inhibitory concentration (MIC), SA S13E [9]: 0.5 | minimal inhibitory concentration (MIC), SA 1199 [10]: 1 | minimal inhibitory concentration (MIC), SA 1199A [11]: 0.25 | minimal inhibitory concentration (MIC), SH 105 [12]: 1 | minimal inhibitory concentration (MIC), SH 415 [13]: 0.5 | minimal inhibitory concentration (MIC), SE 270 [14]: 0.25 | minimal inhibitory concentration (MIC), EF 180 (Enterococcus faecium 180): 0.25 | minimal inhibitory concentration (MIC), EF 180-1 [15]: ≦.06 | minimal inhibitory concentration (MIC), EF 2041 [16]: ≦.06 | minimal inhibitory concentration (MIC), EF 276 [17]: 0.5 | minimal inhibitory concentration (MIC), EG 245 [18]: ≦.06 | minimal inhibitory concentration (MIC), HFRD [19]: 16 | minimal inhibitory concentration (MIC), EC 14 (Escherichia coli EC14): >64
